This experiment deals with BDF1 mice, P388 leukemia ip, median survival T/C. As to the kind of experiment: NCI In Vivo Anticancer Drug Screen. Data for tumor model P388 Leukemia (intraperitoneal) in B6D2F1 (BDF1) mice. Particulars: endpoint: median survival time, higher = longer survival. An outline of the steps: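 Survival ratio, drug arm over vehicle arm, in mice with a transplanted tumour.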
Where [1] appears, read: dose: 100.0 mg/kg/injection, schedule: Q04DX003 (ip), vehicle: Klucel (hydroxypropylcellulose) (HPC).
[2] abbreviates: dose: 200.0 mg/kg/injection, schedule: Q04DX003 (ip), vehicle: Klucel (hydroxypropylcellulose) (HPC).
The mark [3] stands for this setting: dose: 400.0 mg/kg/injection, schedule: Q04DX003 (ip), vehicle: Klucel (hydroxypropylcellulose) (HPC).
Where [4] appears, read: dose: 100.0 mg/kg/injection, schedule: Q04DX003 (ip), vehicle: saline.
Where [5] appears, read: dose: 200.0 mg/kg/injection, schedule: Q04DX003 (ip), vehicle: saline.
Setting [6] is: dose: 25.0 mg/kg/injection, schedule: Q01DX009 (ip), vehicle: water.
The mark [7] stands for this setting: dose: 50.0 mg/kg/injection, schedule: Q01DX009 (ip), vehicle: water.
[8] abbreviates: dose: 50.0 mg/kg/injection, schedule: Q04DX003 (ip), vehicle: water.
Where [9] appears, read: dose: 100.0 mg/kg/injection, schedule: Q01DX009 (ip), vehicle: water.
The mark [10] stands for this setting: dose: 100.0 mg/kg/injection, schedule: Q04DX003 (ip), vehicle: water.
[11] abbreviates: dose: 200.0 mg/kg/injection, schedule: Q01DX009 (ip), vehicle: water.
The mark [12] stands for this setting: dose: 200.0 mg/kg/injection, schedule: Q04DX003 (ip), vehicle: water.
Setting [13] is: dose: 400.0 mg/kg/injection, schedule: Q01DX009 (ip), vehicle: water.
[14] abbreviates: dose: 400.0 mg/kg/injection, schedule: Q04DX003 (ip), vehicle: water.
Setting [15] is: dose: 12.5 mg/kg/injection, schedule: Q01DX009 (ip), vehicle: water.
[16] abbreviates: dose: 400.0 mg/kg/injection, schedule: Q04DX003 (ip), vehicle: saline.
Setting [17] is: dose: 50.0 mg/kg/injection, schedule: Q01DX009 (ip), vehicle: Klucel (hydroxypropylcellulose) (HPC).
Setting [18] is: dose: 100.0 mg/kg/injection, schedule: Q01DX009 (ip), vehicle: Klucel (hydroxypropylcellulose) (HPC).
[19] abbreviates: dose: 200.0 mg/kg/injection, schedule: Q01DX009 (ip), vehicle: Klucel (hydroxypropylcellulose) (HPC).

Values joined by “and” are separate entries in the source; they are usually repeats but may differ in a detail not shown here. Equal values may be shown once. Toxic doses and inconclusive results are not listed.

Experimental findings from PubChem BioAssay AID328 (DTP/NCI, 2004) are described below.

Take `CCCCCc1ccc2oc(=O)c3ccc(C)cc3c2c1O`: the T/C is, setting by setting: (dose: 1.5 mg/kg/injection, schedule: Q01DX009 (ip), vehicle: Klucel (hydroxypropylcellulose) (HPC)) 95 % of control; (dose: 3.0 mg/kg/injection, schedule: Q01DX009 (ip), vehicle: Klucel (hydroxypropylcellulose) (HPC)) 104 % of control; (dose: 6.0 mg/kg/injection, schedule: Q01DX009 (ip), vehicle: Klucel (hydroxypropylcellulose) (HPC)) 104 % of control; (dose: 6.25 mg/kg/injection, schedule: Q01DX009 (ip), vehicle: Klucel (hydroxypropylcellulose) (HPC)) 92 % of control; under setting [1], 100 % of control; under setting [2], 100 % of control. In addition, under setting [3], the T/C is 95 % of control.

Turning to `Nc1cc(Cl)c(O)c(Cl)c1`, the T/C runs as follows: (dose: 50.0 mg/kg/injection, schedule: Q04DX003 (ip), vehicle: saline) 100 % of control; under setting [4], 100 % of control; under setting [5], 95 % of control.

As to `COC1C(OC(=O)c2ccc(C)[nH]2)C(O)C(Oc2ccc3c(O)c(NC(=O)c4ccc(O)c(CC=C(C)C)c4)c(=O)oc3c2Cl)OC1(C)C` (stereo unspecified), the T/C is, setting by setting: (dose: 50.0 mg/kg/injection, schedule: Q01DX009 (ip), vehicle: other) 106 % of control; (dose: 100.0 mg/kg/injection, schedule: Q01DX009 (ip), vehicle: other) 104 % of control; (dose: 200.0 mg/kg/injection, schedule: Q01DX009 (ip), vehicle: other) 115 % of control.

`Nc1ccc2cn[nH]c2c1`: the T/C was 99 % of control under setting [6]; 103 % of control under setting [7]; 103 % of control under setting [8]; 89 % of control under setting [9]; 116 % of control under setting [10]; 94 % of control under setting [11]. Besides, the T/C reads like this: under setting [12], 110 % of control; under setting [13], 94 % of control; under setting [14], 116 % of control.

Turning to `CC(C(=O)O)N(CC(=O)O)CC(=O)O.[Co+2].[NH-]CC(=O)O` (stereo unspecified), the T/C reads like this: under setting [15], 99 % of control; under setting [6], 108 % of control; under setting [7], 105 % of control; under setting [8], 103 % of control; under setting [10], 96 % of control.

Take `NC(=O)Nc1cccc2ccccc12`: the T/C is 88 % of control under setting [1]; 92 % of control (dose: 200.0 mg/kg/injection, schedule: Q01DX009 (ip), vehicle: gum acacia); 92 % of control under setting [2]; 96 % of control (dose: 400.0 mg/kg/injection, schedule: Q01DX009 (ip), vehicle: gum acacia).

For `Cn1c(=N)ccn(C2OC(CO)C(O)C2O)c1=O` (stereo unspecified) (tested in a mixture with another compound), the T/C by setting is: under setting [5], 111 % of control; under setting [16], 165 % of control.

On to `CN(C)c1ccc(C=O)cc1Br`, for which the T/C under setting [17] was 95 % of control; the T/C under setting [18] was 95 % of control; the T/C under setting [1] was 100 % of control; the T/C under setting [19] was 100 % of control; the T/C under setting [2] was 100 % of control; the T/C under setting [3] is 100 % of control.

On to `O=CN(SSN(C=O)C1CCCCC1)C1CCCCC1`, for which the T/C by setting is: (dose: 50.0 mg/kg/injection, schedule: Q01DX009 (ip), vehicle: saline with Tween-80) 108 % of control and 116 % of control; (dose: 100.0 mg/kg/injection, schedule: Q01DX009 (ip), vehicle: saline with Tween-80) 122 % of control.

Take `C[C@H]1C[C@@H]2[C@H]([C@@H](O)C[C@@]3(C)[C@H]2CC[C@]3(O)C(=O)CO)[C@@]2(C)C=CC(=O)C=C12`: the T/C is, setting by setting: (dose: 200.0 mg/kg/injection, schedule: Q01DX009 (ip), vehicle: saline with Tween-80) 104 % of control; (dose: 400.0 mg/kg/injection, schedule: Q01DX009 (ip), vehicle: saline with Tween-80) 90 % of control.

Turning to `CCCC1(C)NC(=O)NC1=O` (stereo unspecified), the T/C by setting is: (dose: 100.0 mg/kg/injection, schedule: Q04DX003 (ip), vehicle: saline with Tween-80) 104 % of control; (dose: 200.0 mg/kg/injection, schedule: Q04DX003 (ip), vehicle: saline with Tween-80) 113 % of control; (dose: 400.0 mg/kg/injection, schedule: Q04DX003 (ip), vehicle: saline with Tween-80) 90 % of control.

`C=CC[N+](CC=C)(CC=C)CC[N+](CC=C)(CC=C)CC=C`: the T/C is, setting by setting: under setting [15], 102 % of control; (dose: 12.5 mg/kg/injection, schedule: Q04DX003 (ip), vehicle: saline with Tween-80) 104 % of control; under setting [6], 105 % of control; (dose: 25.0 mg/kg/injection, schedule: Q04DX003 (ip), vehicle: saline with Tween-80) 104 % of control; under setting [7], 115 % of control; (dose: 50.0 mg/kg/injection, schedule: Q04DX003 (ip), vehicle: saline with Tween-80) 101 % of control.

Take `CN(N=O)c1ccc(N(C)N=O)cc1`: the T/C runs as follows: under setting [17], 95 % of control; under setting [18], 95 % of control; under setting [1], 95 % of control; under setting [19], 90 % of control; under setting [2], 105 % of control; under setting [3], 95 % of control.

For the compound `C=C1C(c2ccccc2)C(c2ccccc2)=C(C)C(c2ccccc2)=CN1C(=O)c1ccccc1` (stereo unspecified), the T/C reads like this: under setting [17], 97 % of control; under setting [18], 88 % of control; under setting [19], 95 % of control.

`O=C1c2ccccc2-c2cc(-c3ccccc3)cc(-c3ccccc3)c21`: the T/C was 100 % of control under setting [1], 100 % of control under setting [2] and 100 % of control under setting [3].

In the case of `CCOC(=O)N1C=Cn2c(cnc2C)C1O` (stereo unspecified), the T/C was 105 % of control (dose: 50.0 mg/kg/injection, schedule: Q01DX009 (ip), vehicle: saline); 110 % of control under setting [7]; 97 % of control (dose: 100.0 mg/kg/injection, schedule: Q01DX009 (ip), vehicle: saline); 103 % of control under setting [9]; 100 % of control under setting [4]; 96 % of control under setting [10]. In addition, the T/C under setting [11] was 94 % of control; the T/C under setting [5] is 102 % of control; the T/C under setting [12] was 96 % of control; the T/C under setting [13] is 94 % of control; the T/C under setting [16] is 93 % of control; the T/C under setting [14] is 88 % of control.
